Data: patent publication US11945800B1, “1-cyclopropyl-6-fluoro-4-oxo-7-(4-((5-oxo-2-phenyl-4-(quinolin-2-ylmethylene)-4,5-dihydro-1H-imidazol-1-yl)methyl)piperazin-1-yl)-1,4-dihydroquinoline-3-carboxylic acid as an anti-inflammatory and anticancer compound” (KING FAISAL UNIVERSITY, priority 2023, dated 2024)

Legend:
[1] = molecular target: Bovine Serum Albumin (Bos taurus, UniProt P02769); test: Bovine Serum Albumin assay (BSA), inhibition of protein denaturation; type: biochemical; conditions: pH 6.4, read-out: percentage inhibition of precipitation (protein denaturation)
Chain of Bovine Serum Albumin (P02769 25-607): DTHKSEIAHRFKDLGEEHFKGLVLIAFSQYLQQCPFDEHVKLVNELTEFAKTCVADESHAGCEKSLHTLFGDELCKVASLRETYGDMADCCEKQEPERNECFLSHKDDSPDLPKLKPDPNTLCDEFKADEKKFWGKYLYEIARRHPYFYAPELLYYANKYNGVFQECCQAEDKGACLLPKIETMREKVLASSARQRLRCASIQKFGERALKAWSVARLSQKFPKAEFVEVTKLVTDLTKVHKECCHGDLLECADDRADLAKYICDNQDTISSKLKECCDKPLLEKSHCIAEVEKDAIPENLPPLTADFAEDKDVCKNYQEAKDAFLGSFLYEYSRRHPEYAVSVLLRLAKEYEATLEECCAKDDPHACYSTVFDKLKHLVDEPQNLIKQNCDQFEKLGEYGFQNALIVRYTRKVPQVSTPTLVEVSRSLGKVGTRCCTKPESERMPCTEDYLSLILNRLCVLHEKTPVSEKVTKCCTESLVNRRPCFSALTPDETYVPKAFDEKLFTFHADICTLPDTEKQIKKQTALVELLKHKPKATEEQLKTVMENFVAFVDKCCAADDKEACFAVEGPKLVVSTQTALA
Protocol: In vitro-inflammatory activities of the tested samples were determined using a modified method of the BSA assay reported by Williams et al. BSA solution (0.4%, w/v) was prepared in Tris Buffered Saline. The pH was adjusted to 6.4 with glacial acetic acid. Different dilutions of 20, 40, 60, 80, and 100 μg/mL of the stock solutions were added to test tubes containing 1 mL of 0.4%, w/v BSA buffer solution. Both negative (solvent) and positive (aspirin) controls were assayed in a similar manner. The solutions were then heated in a water bath at 72° C. for 10 minutes and cooled for 20 minutes under laboratory conditions. The turbidity of the solutions (level of protein precipitation) was measured at 660 nm in Spectrophotometer (V-770 UV-Visible/NIR Spectrophotometer).
The percentage inhibition of precipitation (protein denaturation) was determined relative to the negative control using the following equation: […]

[2] = tested on: human prostate cancer cells (PC3); test: Cytotoxicity by SRB assay, prostate cancer cells; type: cell-based; conditions: for IC50: PC-3, 72 h, mean±SD
Protocol: (§1) The human prostate cancer cells (PC3) and human osteosarcoma cells (MG-63) were obtained from Nawah Scientific Inc. (Mokatam, Cairo, Egypt) and cultured in DMEM (Dulbecco's modified eagle's medium), Gibco, USA, supplemented with fetal bovine serum (FBS) at a concentration of 10% and 100 U/mL of penicillin and streptomycin (PS). The Cells were incubated at 37° C. in a humidified environment that contained 5% CO2.
(§2) The anticancer activity of 1-cyclopropyl-6-fluoro-4-oxo-7-(4-((5-oxo-2-phenyl-4-(quinolin-2-ylmethylene)-4,5-dihydro-1H-imidazol-1-yl)methyl)piperazin-1-yl)-1,4-dihydroquinoline-3-carboxylic acid was assessed against highly aggressive androgen-independent metastatic human prostate cancer cells (PC3) and osteosarcoma (MG-63) cells.
(§3) Cells were seeded in 96-well plates as aliquots of 100 μL cell suspension and incubated in a complete media for 24 h. afterward, cells were treated with 1-cyclopropyl-6-fluoro-4-oxo-7-(4-((5-oxo-2-phenyl-4-(quinolin-2-ylmethylene)-4,5-dihydro-1H-imidazol-1-yl)methyl)piperazin-1-yl)-1,4-dihydroquinoline-3-carboxylic acid at diverse concentrations ranging from 0.01 μM to 100 μM for 72 h. Then, cells were fixed at 4° C. for one hour with 150 μL of 10% trichloroacetic acid (TCA). After washing the cells five times with distilled water, 70 μL of sulforhodamine (SRB) solution (0.4% w/v) was added and incubated for 10 min at room temperature in a dark place. Cells were washed with 1% acetic acid three times and allowed to air-dry. Then, 150 μL of Tris pH 10.5 (10 mM) was added, and the absorbance was measured at 540 nm using a BMG LABTECH®-FLUOstar Omega microplate reader (Ortenberg, Germany). Half maximal inhibitory concentrations (IC50) values were calculated for each experiment using GraphPad Prism 6 software. IC50 values were reported as mean±SD.
(§4) The inhibition was calculated using the following equation: Inhibition %=100−Average Viability

[3] = tested on: human osteosarcoma cells (MG-63); test: Cytotoxicity by SRB assay, osteosarcoma cells; type: cell-based; conditions: MG-63, 72 h, mean±SD
Protocol: as §1, §2, §3, §4

Structure (SMILES)	inhibition at 100 µg/mL [1] [%]	IC50 ([2]; Homo sapiens, 72 h) [µM]	inhibition at 10 µg/mL ([2]; Homo sapiens, 72 h, Prostate cancer (PC-3), 10 μg/ml) [%]	IC50 ([2]; listed as Our Product) [µM]	Inhibition % ([2]; Prostate cancer (PC-3), 10 μg/ml, 72 h) [%]	IC50 ([3]; Homo sapiens) [µM]	IC50 ([3]; listed as Our Product) [µM]	melting point [°C]
O=C(O)c1cn(C2CC2)c2cc(N3CCN(CN4C(=O)/C(=C\c5ccc6ccccc6n5)N=C4c4ccccc4)CC3)c(F)cc2c1=O [Compound 4, 1-cyclopropyl-6-fluoro-4-oxo-7-(4-((5-oxo-2-phenyl-4-(quinolin-2-ylmethylene)-4,5-dihydro-1H-imidazol-1-yl)methyl)piperazin-1-yl)-1,4-dihydroquinoline-3-carboxylic acid]	88.1	< 4	94	2.88 ± 0.03	94.32	< 4	3.38 ± 0.2	231 to 235
COc1cccc2c1C(=O)c1c(O)c3c(c(O)c1C2=O)C[C@@](O)(C(=O)CO)C[C@@H]3O[C@H]1C[C@H](N)[C@H](O)[C@H](C)O1 [DOX, Doxorubicin, reference compound]	–	7.6 ± 0.45	–	–	–	9.4 ± 1.1	–	–
